Legend:
[1] = system: patients with moderate to severe atopic dermatitis; assay: EASI-75 (difference from placebo) of ICP-332 versus other drugs for treating AD as monotherapy, not head-to-head; format: in vivo, human; details: ICP-332 4 weeks, other drugs 12 or 16 weeks, approved recommended doses, phase III published literature
Source text: The treatment period for ICP-332 was 4 weeks, while it was 12 or 16 weeks for other drugs with their approved recommended doses from phase III studies. The data of other drugs are based on available published literature.
This is a randomized, double-blind, placebo-controlled, phase 2 study to evaluate the safety, efficacy, pharmacokinetics, and pharmacodynamics of ICP-332 (Compound A) in patients with moderate to severe atopic dermatitis.
A total of 75 subjects with 25 subjects in each group are enrolled. • (1) ICP-332 80 mg, QD for 28 days (40 mg*2 tablets+Placebo*1 tablet) • (2) ICP-332 120 mg. QD for 28 days (40 mg*3 tablets) • (3) Placebo. QD for 28 days (Placebo*3 tablets)

[2] = system: patients with moderate to severe atopic dermatitis; assay: Phase 2 randomized, double-blind, placebo-controlled clinical study of ICP-332 in atopic dermatitis patients; format: in vivo, human; details: Week 4

Compound: Cn1cc(Nc2ncc(Cl)c(N3C[C@@H]4CN(C(=O)CC#N)C[C@]4(C)C3)n2)cn1 [ICP-332]
- EASI-75 (difference from placebo) versus other drugs [1]: best EASI-75 value over placebo
- EASI 50, EASI 75, EASI 90, IGA 0/1 ([2]; 80 mg qd oral): significant improvements
- percent change from baseline in EASI total score ([2]; 80 mg qd oral): significantly reduced the EASI total score (p<0.0001)
- EASI 50, EASI 75, EASI 90, IGA 0/1 ([2]; 120 mg qd oral): significant improvements
- percent change from baseline in EASI total score ([2]; 120 mg qd oral): significantly reduced the EASI total score (p<0.0001)

Reference: patent publication US20260355197A1, “METHOD FOR TREATING ATOPIC DERMATITIS” (BEIJING INNOCARE PHARMA TECH CO., LTD., priority 2023, published 2026)
